{
  "source": "paper PMC11509018",
  "about": "“Evaluation of the Role of Tanshinone I in an In Vitro System of Charcot-Marie-Tooth Disease Type 2N” (International Journal of Molecular Sciences, 2024)",
  "key": {"[1]": {"molecular_target": "T1, AlaRS^R329H (Homo sapiens, UniProt P49588, R329H)", "T1 construct": "made in house; host or cells: E. coli BL21 (DE3), pET-21a", "T1 sequence (P49588 1-968 R329H)": "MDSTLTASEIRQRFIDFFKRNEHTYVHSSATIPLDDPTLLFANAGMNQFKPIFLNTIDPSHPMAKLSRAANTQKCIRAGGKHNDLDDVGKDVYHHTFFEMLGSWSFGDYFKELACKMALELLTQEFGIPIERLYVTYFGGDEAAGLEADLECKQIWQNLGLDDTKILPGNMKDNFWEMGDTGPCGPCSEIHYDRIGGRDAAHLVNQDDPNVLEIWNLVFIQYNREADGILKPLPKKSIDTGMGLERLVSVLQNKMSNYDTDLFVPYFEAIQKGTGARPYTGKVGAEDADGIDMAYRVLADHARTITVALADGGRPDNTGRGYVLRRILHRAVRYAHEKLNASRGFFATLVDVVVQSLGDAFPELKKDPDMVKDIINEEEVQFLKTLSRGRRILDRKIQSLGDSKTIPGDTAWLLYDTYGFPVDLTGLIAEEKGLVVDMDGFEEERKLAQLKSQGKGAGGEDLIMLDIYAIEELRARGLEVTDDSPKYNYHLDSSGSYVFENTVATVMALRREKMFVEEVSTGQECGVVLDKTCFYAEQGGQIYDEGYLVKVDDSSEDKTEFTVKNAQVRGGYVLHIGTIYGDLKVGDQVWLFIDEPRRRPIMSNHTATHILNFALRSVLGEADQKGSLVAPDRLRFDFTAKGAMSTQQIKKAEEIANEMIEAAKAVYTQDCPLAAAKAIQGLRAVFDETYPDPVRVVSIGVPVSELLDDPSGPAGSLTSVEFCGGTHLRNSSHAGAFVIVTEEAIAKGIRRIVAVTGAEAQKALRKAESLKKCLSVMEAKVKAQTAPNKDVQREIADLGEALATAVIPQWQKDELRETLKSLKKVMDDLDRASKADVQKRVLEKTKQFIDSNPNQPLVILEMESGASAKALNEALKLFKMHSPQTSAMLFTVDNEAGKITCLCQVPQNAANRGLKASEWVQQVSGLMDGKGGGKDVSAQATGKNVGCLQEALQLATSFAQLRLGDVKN", "assay": "ATP consumption assay (enzyme inhibition)", "type": "biochemical", "conditions": "1 μM AlaRS^R329H at 20 μM compounds; vs DMSO control", "protocol": "We further investigated the effects of the four small molecules on the enzymatic activity of the AlaRS^R329H protein using an ATP consumption assay. All four compounds affected enzymatic activity to varying degrees. […] The ATP consumption assay was used to evaluate the enzymatic inhibitory activity of the compounds. A 30 μL reaction mixture, containing 1 μM AlaRS mutants, 25 μM ATP, 50 μM L-alanine, 30 mM HEPES (pH 7.5), 150 mM NaCl, 30 mM KCl, 40 mM MgCl2, 0.1% BSA, and varying concentrations of Tanshinone I, was incubated at room temperature for 15 min. After incubation, 10 μL of the mixture was transferred to a 384-well microplate, and AlaRS mutant activity was measured by adding 10 μL of the ATP Assay Kit (#S0026, Beyotime, Shanghai, China). Luminescence was recorded using a Synergy HTX multimode microplate reader (BioTek Inc., Winooski, VT, USA). The inhibitory rate was calculated from three independent assays to ensure the accurate assessment of Tanshinone I’s inhibitory activity. The experiment was repeated three times."}, "[2]": {"molecular_target": "T2, AlaRS R329H binding to Nrp1 (Homo sapiens, UniProt P49588, R329H)", "T2 construct": "expressed in transfected cells", "T2 sequence (P49588 1-968 R329H)": "T1 sequence (P49588 1-968 R329H)", "assay": "Co-IP of HA-AlaRS mutant with Nrp1 in transfected cells", "type": "cell-based", "conditions": "20 µM Tanshinone I for 24 h, ImageJ, average of three repeats"}},
  "data": [
    {"smiles": "Cc1coc2c1C(=O)C(=O)c1c-2ccc2c(C)cccc12", "note": "[Tanshinone I]", "values": [
      {"measurement": "Relative Activity (relative enzyme activity of the first step)", "setting": "[1]", "result": 26.2, "unit": "%"},
      {"measurement": "Mean density band (R329H), relative quantification of AlaRS mutant immunoprecipitated", "setting": "[2]", "result": 0.50}
    ]}
  ]
}
